Source: ChEMBL document CHEMBL5380864, “Novel Synthesis of C-Methylated Phytocannabinoids Bearing Anti-inflammatory Properties” (J Med Chem, 2023)
Activity calls are given as the source filed them. The calls are words filed in the database; no cut-off is given here.

Legend:
Mus musculus [1] = experiment: Anti-inflammatory activity against zymosan A-induced Sabra mouse model assessed as reduction in […] at 5 to 25 mg/kg, ip measured after 6 hrs; type: functional, organism-based; conditions: dose 5-25 mg/kg
Mus musculus [2] = experiment: Anti-inflammatory activity against zymosan A-induced Sabra mouse model assessed as reduction in TNF-alpha level administered intraperitoneally and measured after 24 hrs by ELISA analysis; type: functional, organism-based; conditions: route ip
Mus musculus [3] = experiment: Anti-inflammatory activity against zymosan A-induced Sabra mouse model assessed as reduction in paw swelling at 5 to 25 mg/kg, ip measured after 6 hrs; type: functional, organism-based; conditions: dose 5-25 mg/kg
Mus musculus [4] = experiment: Anti-inflammatory activity against zymosan A-induced Sabra mouse model assessed as reduction in paw swelling at 5 to 50 mg/kg, ip measured after 6 hrs; type: functional, organism-based; conditions: dose 5-50 mg/kg
Mus musculus [5] = experiment: Anti-inflammatory activity against zymosan A-induced Sabra mouse model assessed as reduction in pain sensation at 5 to 50 mg/kg, ip measured after 6 hrs; type: functional, organism-based; conditions: dose 5-50 mg/kg
Mus musculus [6] = experiment: Anti-inflammatory activity against zymosan A-induced Sabra mouse model assessed as reduction in TNF-alpha level at 5 to 50 mg/kg, ip measured after 24 hrs by ELSA analysis; type: functional, organism-based; conditions: dose 5-50 mg/kg
Mus musculus [7] = experiment: Anti-inflammatory activity against zymosan A-induced Sabra mouse model assessed as reduction in pain sensation administered intraperitoneally and measured after 6 hrs; type: functional, organism-based; conditions: dose 5-50 mg/kg, route ip
Mus musculus [8] = experiment: Anti- inflammatory activity against C57BL/6 mouse model of LPS-induced peritonitis assessed as reduction in plasma IL-6 level at 5 mg/kg, ip pre-administered for 60 mins followed by LPS-stimulation and measured after 90 mins by ELISA analysis; type: functional, organism-based; conditions: time 150.0 min
Mus musculus [9] = experiment: Anti- inflammatory activity against C57BL/6 mouse model of LPS-induced peritonitis assessed as reduction in plasma IL-1beta level at 5 mg/kg, ip pre-administered for 60 mins followed by LPS-stimulation and measured after 90 mins by ELISA analysis; type: functional, organism-based; conditions: time 150.0 min
Mus musculus [10] = experiment: Anti- inflammatory activity against C57BL/6 mouse model of LPS-induced peritonitis assessed as reduction in plasma TNF alpha level at 5 mg/kg, ip pre-administered for 60 mins followed by LPS-stimulation and measured after 90 mins by ELISA analysis; type: functional, organism-based; conditions: time 150.0 min
Mus musculus [11] = experiment: Anti-inflammatory activity against zymosan A-induced Sabra mouse model assessed as reduction in TNF-alpha level at 5 to 25 mg/kg, ip measured after 24 hrs by ELISA analysis; type: functional, organism-based; conditions: dose 5-25 mg/kg
Mus musculus [12] = experiment: Anti-inflammatory activity against zymosan A-induced Sabra mouse model assessed as reduction in pain sensation at 10 to 25 mg/kg, ip measured after 6 hrs; type: functional, organism-based; conditions: dose 10-25 mg/kg
BMDM [13] = experiment: Inhibition of IL-1beta protein expression in LPS-stimulated human bone-marrow derived macrophage cells at 5 uM preincubated with compound for 3 hrs followed by LPS stimulation for 3 hrs and measured 30 mins after ATP addition by ELISA analysis; type: functional, cell-based; conditions: time 6.5 hrs
Mus musculus [14] = experiment: Anti-inflammatory activity against zymosan A-induced Sabra mouse model assessed as reduction in paw swelling at 10 to 25 mg/kg, ip measured after 6 hrs; type: functional, organism-based; conditions: dose 10-25 mg/kg
BMDM [15] = experiment: Inhibition of IL-1beta mRNA expression in LPS-stimulated human bone-marrow derived macrophage cells at 5 uM preincubated with compound for 3 hrs followed by LPS stimulation for 3 hrs and measured 30 mins after ATP addition by qRT-PCR analysis; type: functional, cell-based; conditions: time 6.5 hrs
Mus musculus [16] = experiment: Anti-inflammatory activity against zymosan A-induced Sabra mouse model assessed as reduction in TNF-alpha level at 10 to 25 mg/kg, ip measured after 24 hrs by ELISA analysis; type: functional, organism-based; conditions: dose 10-25 mg/kg
Mus musculus [17] = experiment: Anti- inflammatory activity against C57BL/6 mouse model of LPS-induced peritonitis assessed as reduction in plasma TNF alpha level at 10 mg/kg, ip pre-administered for 60 mins followed by LPS-stimulation and measured after 90 mins by ELISA analysis; type: functional, organism-based; conditions: time 150.0 min
Mus musculus [18] = experiment: Anti- inflammatory activity against C57BL/6 mouse model of LPS-induced peritonitis assessed as reduction in plasma IL-1beta level at 10 mg/kg, ip pre-administered for 60 mins followed by LPS-stimulation and measured after 90 mins by ELISA analysis; type: functional, organism-based; conditions: time 150.0 min
Mus musculus [19] = experiment: Anti- inflammatory activity against C57BL/6 mouse model of LPS-induced peritonitis assessed as reduction in plasma IL-6 level at 10 mg/kg, ip pre-administered for 60 mins followed by LPS-stimulation and measured after 90 mins by ELISA analysis; type: functional, organism-based; conditions: time 150.0 min

For `C=C(C)[C@@H]1CCC(C)=C[C@H]1c1c(O)cc(O)c(C)c1CCCCC`, the Activity (Mus musculus [1]) was “Active”, the Activity (Mus musculus [2]) was “Dose-Dependent Effect” and the Activity (Mus musculus [3]) was “Active”.

In the case of `CCCCCc1cc(OC)c(C/C=C(\C)CCC=C(C)C)c(OC)c1C`, the Activity (Mus musculus [4]) is reported as “Active”, the Activity (Mus musculus [5]) is reported as “Active” and the Activity (Mus musculus [6]) is reported as “Active”.

For `C=C(C)[C@@H]1CCC(C)=C[C@H]1c1c(O)c(C)c(CCCCC)c(C)c1O`, the Activity (Mus musculus [4]) was “Active”, the Activity (Mus musculus [6]) was “Active” and the Activity (Mus musculus [7]) was “Dose-Dependent Effect”.

`CCCCCc1cc(O)c(C/C=C(\C)CCC=C(C)C)c(O)c1C` was tested, and the Activity (Mus musculus [8]) was “inactive”, the Activity (Mus musculus [1]) was “Active” and the Activity (Mus musculus [9]) was “Active”. The Activity (Mus musculus [10]) was “inactive”, the Activity (Mus musculus [11]) was “Active” and the Activity (Mus musculus [3]) was “Active”.

For `CCCCCc1cc(O)c([C@@H]2C=C(C)CC[C@H]2C(C)C)c(O)c1C`, the Activity (Mus musculus [12]) was “Active”, the inhibition (BMDM [13]) was “Active” and the Activity (Mus musculus [8]) was “inactive”. For the same compound, the Activity (Mus musculus [14]) was “Active”, the Activity (Mus musculus [9]) was “Active” and the inhibition (BMDM [15]) was “Active”. The Activity (Mus musculus [10]) was “Active” and the Activity (Mus musculus [16]) was “Active”.

In the case of `C=C(C)[C@@H]1CCC(C)=C[C@H]1c1c(OC)cc(CCCCC)c(C)c1OC`, the Activity (Mus musculus [12]) is reported as “Active”, the Activity (Mus musculus [14]) is reported as “Active” and the Activity (Mus musculus [17]) is reported as “Active”. For the same compound, the Activity (Mus musculus [18]) was “inactive”, the Activity (Mus musculus [19]) was “inactive” and the Activity (Mus musculus [16]) was “Active”.

With `C=C(C)[C@@H]1CCC(C)=C[C@H]1c1c(O)cc(CCCCC)c(C)c1O` the Activity (Mus musculus [4]) was “Active”, the Activity (Mus musculus [5]) was “Active” and the Activity (Mus musculus [6]) was “Active”.
